ChEMBL document CHEMBL1201862, “PubChem BioAssay data set” (2004)
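Tested at 5 concentrations; 48 h exposure; 96-well plates; endpoints linearly interpolated, else capped at highest concentration. At the GI50, growth is halved.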 Active and inactive are the calls of the source. Rule as the data show it: active = GI50 up to about 1.1 µM and inactive = higher.

What was measured:
Test in all cases: NCI-60 cell line screen, 48 h
BT-549 = tested on: BT-549
DU-145 = tested on: DU-145
Hs-578T = tested on: Hs-578T
MDA-MB-231 = tested on: MDA-MB-231
MDA-MB-435 = tested on: MDA-MB-435
MDA-N = tested on: MDA-N
PC-3 = tested on: PC-3
SR = tested on: SR
RXF 631 = tested on: RXF 631

Structure (SMILES) | GI50 (BT-549) | GI50 (DU-145) | GI50 (Hs-578T) | GI50 (MDA-MB-231) | GI50 (MDA-MB-435) | GI50 (MDA-N) | GI50 (PC-3) | GI50 (SR) | GI50 (RXF 631)
O=C(O)CNc1ccc(Cl)c(Cl)c1 | 36.7 µM (inactive) | 29.4 µM (inactive) | 33.6 µM (inactive) | 45.3 µM (inactive) | 26.3 µM (inactive) | 23.7 µM (inactive) | 24.6 µM (inactive) | – | –
COc1ccc2oc(=N)c(C(=O)Nc3ccccc3)cc2c1 | 17.7 µM (inactive) | 33.7 µM (inactive) | 15 µM (inactive) | 23.4 µM (inactive) | 15.3 µM (inactive) | 18.5 µM (inactive) | 32.9 µM (inactive) | 7.11 µM (inactive) | –
C=CC(Cl)(CBr)CCC(Br)C(C)(C)Cl (stereo unspecified) | 21.4 µM (inactive) | 19.7 µM (inactive) | 35.4 µM (inactive) | 14.5 µM (inactive) | 14.2 µM (inactive) | 17.7 µM (inactive) | 17.5 µM (inactive) | – | –
COC(=O)c1ccc(OCc2ccc3nc(OC)c(OC)nc3c2)cc1 | – | – | – | – | – | – | – | > 100 µM (inactive) | –
O=C(CC1OC(O)C(Cl)=C1Cl)c1cccnc1 (stereo unspecified) | – | – | – | – | – | – | – | > 100 µM (inactive) | > 100 µM (inactive)
CC(=O)NC1C(O)CC(OCCCSCCN)(C(=O)O)OC1C(O)C(O)CO (stereo unspecified) | – | – | – | – | – | – | – | > 100 µM (inactive) | > 100 µM (inactive)
COc1cc([C@@H]2c3cc4c(cc3[C@@H](OC3OC5COC(C)OC5C(O)C3O)[C@H]3COC(=O)[C@H]23)OCO4)cc(OC)c1O (stereo partly specified) | 2.4 µM (inactive) | 0.849 µM (active) | 0.735 µM (active) | 1.7 µM (inactive) | 28.2 µM (inactive) | 0.968 µM (active) | 0.661 µM (active) | – | –
COC(=O)C(Cc1cc(OC)c(OC)c(OC)c1)(NC(=O)c1ccccc1)P(=O)(OC)OC (stereo unspecified) | – | – | – | – | – | – | – | > 100 µM (inactive) | > 100 µM (inactive)
